Experiment [1] concerns S. aureus ATCC 29213. The experiment is described as follows: Broth microdilution MIC (Example 12), ATCC QC organism. The note with it: ATCC QC organism (Table 102). (In general: In broth dilution the organism is exposed to a series of concentrations in liquid medium.)
The test system of experiment [2] is vancomycin-intermediate Staphylococcus aureus (VISA). Description: Broth microdilution MIC (Example 12). The experiment is classed as cell-based.
Experiment [3] has as its system S. aureus ATCC 29213. The note with it: CLSI established QC range; cited from earlier work.
Experiment [4] concerns Gram-positive aerobic bacteria (S. aureus, MRSA, CA-MRSA). Description: MIC90 against 150 clinical isolates of Gram-positive aerobic bacteria. The note with it: S. aureus (50 isolates). Type of experiment: cell-based.

SMILES strings stand for the structures. In brackets after ≈: the same amount, converted by molar mass.

Consider `CC(=O)NC[C@H]1CN(c2ccc(N3CCOCC3)c(F)c2)C(=O)O1` [LZD], for which the MIC in the experiment on S. aureus ATCC 29213 [1] is 4 µg/mL (≈ 11.9 µM); in experiment [2] (S. aureus NRS 1 (hVISA)) it was 1 µg/mL (≈ 2.96 µM); in experiment [2] (S. aureus NRS 2), 4 µg/mL (≈ 11.9 µM); in experiment [2] (S. aureus NRS 3), 1 µg/mL (≈ 2.96 µM); in experiment [2] (S. aureus NRS 4) it was 1 µg/mL (≈ 2.96 µM); in experiment [2] (S. aureus NRS 13), 2 µg/mL (≈ 5.93 µM). Also, the MIC in experiment [2] (S. aureus NRS 18) was determined as 1 µg/mL (≈ 2.96 µM); in experiment [2] (S. aureus NRS 22), 1 µg/mL (≈ 2.96 µM); in experiment [2] (S. aureus NRS 24 (hVISA)), 2 µg/mL (≈ 5.93 µM); in experiment [2] (S. aureus NRS 27), 2 µg/mL (≈ 5.93 µM). Besides, in the experiment on S. aureus ATCC 29213 [3], the “QC range of MIC” value is “(1-4) μg/mL”. Besides, the MIC90 in experiment [4] (CA-MRSA), in experiment [4] (MRSA) and in experiment [4] (MSSA) was 4 µg/mL (≈ 11.9 µM) throughout.
Regarding `CN[C@H](CC(C)C)C(=O)N[C@H]1C(=O)N[C@@H](CC(N)=O)C(=O)N[C@H]2C(=O)N[C@H]3C(=O)N[C@H](C(=O)N[C@H](C(=O)O)c4cc(O)cc(O)c4-c4cc3ccc4O)[C@H](O)c3ccc(c(Cl)c3)Oc3cc2cc(c3O[C@@H]2O[C@H](CO)[C@@H](O)[C@H](O)[C@H]2O[C@H]2C[C@](C)(N)[C@H](O)[C@H](C)O2)Oc2ccc(cc2Cl)[C@H]1O` [VAN], the MIC in the experiment with S. aureus ATCC 29213 [1] was determined as 0.5 µg/mL (≈ 0.345 µM); in experiment [2] (S. aureus NRS 1 (hVISA)), 4 µg/mL (≈ 2.76 µM); in experiment [2] (S. aureus NRS 2), 0.5 µg/mL (≈ 0.345 µM); in experiment [2] (S. aureus NRS 3), 8 µg/mL (≈ 5.52 µM); in experiment [2] (S. aureus NRS 4) it was 4 µg/mL (≈ 2.76 µM); in experiment [2] (S. aureus NRS 13), 2 µg/mL (≈ 1.38 µM). Moreover, the MIC in experiment [2] (S. aureus NRS 18) came to 4 µg/mL (≈ 2.76 µM); in experiment [2] (S. aureus NRS 22) it was 4 µg/mL (≈ 2.76 µM); in experiment [2] (S. aureus NRS 24 (hVISA)), 2 µg/mL (≈ 1.38 µM); in experiment [2] (S. aureus NRS 27) it was 2 µg/mL (≈ 1.38 µM). Also, the “QC range of MIC” value in the experiment on S. aureus ATCC 29213 [3] is “(0.5-2) μg/mL”. Also, the MIC90 worked out at 1 µg/mL (≈ 0.69 µM) in experiment [4] (CA-MRSA), 2 µg/mL (≈ 1.38 µM) in experiment [4] (MRSA) and 1 µg/mL (≈ 0.69 µM) in experiment [4] (MSSA).

What is called MIC is the lowest concentration found to suppress growth. Higher therefore signals a less susceptible organism. As a reminder, the MIC90 is the lowest concentration that inhibits either 90% of growth or 90% of the strains tested, depending on the study. Low values mean greater potency, high ones weaker potency.

The values are drawn from patent US20230124862A1, “BISMUTH THIOL COMPOUNDS AND COMPOSITIONS AND METHODS OF TREATING MICROBIAL CO-INFECTIONS” (Microbion Corporation, priority 2020, published 2023).
